Results from US10513533B2, “Tunicamycin related compounds with anti-bacterial activity” (priority 2017, dated 2019).
Entries after “also recorded” stand apart in the source; their conditions may differ.

Key:
Saccharomyces cerevisiae = test: agar diffusion-zone of inhibition assay; format: cell-based; settings: for Zone of Clearing (cm) Yeast: Example 1, 0.5 μg spotted
Bacillus subtilis = test: agar diffusion-zone of inhibition assay; format: cell-based; settings: for Zone of Clearing (cm) B. subtilis: Example 1, 0.5 μg spotted
[1] = test system: AtchitIV5 N-glycosylation; test: Pichia-based protein N-glycosylation assay (SDS-PAGE); format: cell-based; settings: Example 2, 20 μg/mL, added at methanol induction
B. subtilis strain MW10 = test: beta-lactam enhancement, broth dilution MIC with resazurin; settings: for MIC of the beta-lactam without any tunicamycins or tunicamycin related compounds added: beta-lactam alone
[2] = test system: Chinese hamster ovary (CHO) cells; test: cytotoxicity against mammalian cell line in culture; format: cell-based; settings: FIG. 8A, 0.5 μg, 1.0 μg, 2.0 μg
Source text: Chinese hamster ovary (CHO) cells are chosen for this experiment because they have been used previously as a model for tunicamycin toxicity. See, e.g., Scocca and Krag, J. Biol. Chem., 265:20621-20626 (1990). A human cell line (MDA-MB-231 triple negative human breast cancer cells) are also used because their known susceptibility to tunicamycin. See, Banerjee, et al., Cancer Res. 71:2095 (2011). The protocols used are described in Duksin & Bornstein, Proc. Natl. Acad. Sci. (U.S.A.), 74:3433-3437 (1977).

[3] = test system: cell wall teichoic acid (WTA) pathway; settings: background, literature; cited from earlier work

COc1ccc(O[C@@H]2OC([C@H](O)C[C@H]3OC(O[C@H]4OC(CO)[C@@H](O)C(O)C4NC(C)=O)[C@H](N)C(O)C3O)[C@@H](O)[C@H]2O)cc1 (some centres unmarked) [Compound 6]
toxicity / antimicrobial activity on S. cerevisiae (in words) (Saccharomyces cerevisiae): no antimicrobial biological activity
Zone of Clearing (cm) Yeast (Saccharomyces cerevisiae): 0 cm
antimicrobial activity on Bacillus (in words) (Bacillus subtilis): no antimicrobial biological activity
Zone of Clearing (cm) B. subtilis (Bacillus subtilis): 0 cm

CC(=O)NC1C(O)[C@H](O)[C@H](CO)O[C@@H]1O[C@@H]1O[C@H](C[C@@H](O)C2O[C@@H](n3ccc(=O)[nH]c3=O)[C@H](O)[C@@H]2O)C(O)C(O)[C@H]1NC(=O)/C=C/CCCCCCCCCC(C)C (some centres unmarked) [Compound 2]
toxicity / antimicrobial activity on S. cerevisiae (in words) (Saccharomyces cerevisiae): same antimicrobial activity as the native tunicamycin
Zone of Clearing (cm) Yeast (Saccharomyces cerevisiae): 2.4 cm
antimicrobial activity on Bacillus (in words) (Bacillus subtilis): same antimicrobial activity as the native tunicamycin
Zone of Clearing (cm) B. subtilis (Bacillus subtilis): 2.5 cm
inhibition of AtchitIV5 N-glycosylation (in words) [1]: same effect as the naturally occurring tunicamycins

[N-]=[N+]=NC1C(O)[C@H](O)C(CO)O[C@@H]1OC1O[C@H](C[C@@H](O)C2O[C@@H](n3ccc(=O)[nH]c3=O)[C@H](O)[C@@H]2O)C(O)C(O)[C@H]1N1C(=O)c2ccccc2C1=O (some centres unmarked) [Compound 5]
Zone of Clearing (cm) Yeast (Saccharomyces cerevisiae): 0 cm
Zone of Clearing (cm) B. subtilis (Bacillus subtilis): 0 cm

COc1cccc(OC)c1C(=O)N[C@@H]1C(=O)N2[C@@H]1SC(C)(C)[C@@H]2C(=O)O [methicillin]
MIC of the beta-lactam without any tunicamycins or tunicamycin related compounds added (B. subtilis strain MW10): 0.125 µg/mL

CC1(C)S[C@@H]2[C@H](NC(=O)Cc3ccccc3)C(=O)N2[C@H]1C(=O)O [penicillin G]
MIC of the beta-lactam without any tunicamycins or tunicamycin related compounds added (B. subtilis strain MW10): 0.025 µg/mL

CC(C)CCCCCCCCC/C=C/C(=O)N[C@@H]1C(O)C(O)[C@@H](C[C@@H](O)C2O[C@@H](n3ccc(=O)[nH]c3=O)[C@H](O)[C@@H]2O)O[C@H]1O[C@H]1O[C@@H](CO)[C@@H](O)C(O)C1N=[N+]=[N-] (some centres unmarked) [Compound 4]
toxicity / antimicrobial activity on S. cerevisiae (in words) (Saccharomyces cerevisiae): essentially non-toxic; also recorded: reduced toxicity
Zone of Clearing (cm) Yeast (Saccharomyces cerevisiae): 0 cm
antimicrobial activity on Bacillus (in words) (Bacillus subtilis): almost equivalent to the native tunicamycin
Zone of Clearing (cm) B. subtilis (Bacillus subtilis): 1.6 cm

CC(=O)NC1C(O)[C@H](O)C(CO)O[C@@H]1OC1O[C@H](C[C@@H](O)C2O[C@@H](n3ccc(=O)[nH]c3=O)[C@H](O)[C@@H]2O)C(O)C(O)[C@H]1NC(C)=O (some centres unmarked) [Compound 9]
Zone of Clearing (cm) Yeast (Saccharomyces cerevisiae): 0 cm
Zone of Clearing (cm) B. subtilis (Bacillus subtilis): 0 cm

CC(=O)NC1C(O)[C@H](O)C(CO)O[C@@H]1OC1O[C@H](C[C@@H](O)C2O[C@@H](n3ccc(=O)[nH]c3=O)[C@H](O)[C@@H]2O)C(O)C(O)[C@H]1N (some centres unmarked) [Compound 1]
Zone of Clearing (cm) Yeast (Saccharomyces cerevisiae): 0 cm
Zone of Clearing (cm) B. subtilis (Bacillus subtilis): 0 cm

quinovosamycin
toxicity to CHO cells (in words) [2]: toxic

CC(=O)NC1C(O)[C@H](O)[C@H](CO)O[C@@H]1O[C@@H]1O[C@H](C[C@@H](O)C2O[C@@H](n3cnc4c(N)ncnc43)[C@H](O)[C@@H]2O)C(O)C(O)[C@H]1NC(=O)/C=C/CCCCCCCCCC(C)C (some centres unmarked) [Compound 10]
toxicity / antimicrobial activity on S. cerevisiae (in words) (Saccharomyces cerevisiae): no antimicrobial biological activity
Zone of Clearing (cm) Yeast (Saccharomyces cerevisiae): 0 cm
antimicrobial activity on Bacillus (in words) (Bacillus subtilis): no antimicrobial biological activity
Zone of Clearing (cm) B. subtilis (Bacillus subtilis): 0 cm

COc1ccc(O[C@@H]2OC([C@H](O)C[C@H]3O[C@@H](O[C@H]4O[C@@H](CO)[C@@H](O)C(O)C4NC(C)=O)[C@H](NC(=O)/C=C/CCCCCCCCCC(C)C)C(O)C3O)[C@@H](O)[C@H]2O)cc1 (some centres unmarked) [Compound 7]
toxicity / antimicrobial activity on S. cerevisiae (in words) (Saccharomyces cerevisiae): no antimicrobial biological activity
Zone of Clearing (cm) Yeast (Saccharomyces cerevisiae): 0 cm
antimicrobial activity on Bacillus (in words) (Bacillus subtilis): no antimicrobial biological activity
Zone of Clearing (cm) B. subtilis (Bacillus subtilis): 0 cm

Cc1onc(-c2ccccc2)c1C(=O)N[C@@H]1C(=O)N2[C@@H]1SC(C)(C)[C@@H]2C(=O)O [oxacillin]
MIC (B. subtilis strain MW10; Bacillus subtilis, MW10, read-out: MIC of oxacillin only): 0.125 µg/mL
MIC of the beta-lactam without any tunicamycins or tunicamycin related compounds added (B. subtilis strain MW10): 0.25 µg/mL

CC(=O)NC1C(O)[C@H](O)[C@H](CO)O[C@@H]1O[C@@H]1O[C@H](C[C@@H](O)C2O[C@@H](n3ccc(=O)[nH]c3=O)[C@H](O)[C@@H]2O)C(O)C(O)[C@H]1NC(=O)CCCCCCCCCCCC(C)C (some centres unmarked) [Compound 3]
toxicity / antimicrobial activity on S. cerevisiae (in words) (Saccharomyces cerevisiae): considerably less toxic; also recorded: reduced toxicity
Zone of Clearing (cm) Yeast (Saccharomyces cerevisiae): 0.2 cm
antimicrobial activity on Bacillus (in words) (Bacillus subtilis): comparable response
Zone of Clearing (cm) B. subtilis (Bacillus subtilis): 2.3 cm
inhibition of AtchitIV5 N-glycosylation (in words) [1]: less effective inhibitor

C[C@H]1[C@@H](c2cc(C(F)(F)F)cc(C(F)(F)F)c2)OC(=O)N1C(=O)CCc1cncc2ccccc12 [tarocin A1]
depletion of the cell wall teichoic acid polymer (in words) [3]: complete depletion
